Measured values as given in PubChem BioAssay AID248 (DTP/NCI, 2004).
Inconclusive results and toxic doses are left out. No stated cut-off is given here; in the data, active means T/C of 150% or more; inactive means T/C below 125%.

Tested on: L1210 leukemia ip in BDF1 mice, survival T/C
Assay: NCI In Vivo Anticancer Drug Screen. Data for tumor model L1210 Leukemia (intraperitoneal) in B6D2F1 (BDF1) mice
Details: endpoint: mean survival time, higher = longer survival
In short: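 Tumor cells were implanted, animals were treated, and survival was followed. The result divides the treated measurement by the vehicle-control measurement.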

Measured: T/C

CC(=O)OC1CCC2(C)C(=CC(=O)C3C4CCC(C(C)C)C4CCC32)C1 (stereo unspecified)
inactive: dose: 75.0 mg/kg/injection, schedule: Q01DX009 (sc), vehicle: steriod suspending solution 95 % of control | dose: 75.0 mg/kg/injection, schedule: Q04DX003 (sc), vehicle: steriod suspending solution 94 % of control | dose: 150.0 mg/kg/injection, schedule: Q01DX009 (sc), vehicle: steriod suspending solution 109 % of control | dose: 150.0 mg/kg/injection, schedule: Q04DX003 (sc), vehicle: steriod suspending solution 98 % of control | dose: 300.0 mg/kg/injection, schedule: Q01DX009 (sc), vehicle: steriod suspending solution 108 % of control | dose: 300.0 mg/kg/injection, schedule: Q04DX003 (sc), vehicle: steriod suspending solution 94 % of control

Cc1cccc(NC(=O)NC2CCCCC2)c1C
inactive: dose: 100.0 mg/kg/injection, schedule: Q04DX002 (ip), vehicle: Klucel (hydroxypropylcellulose) (HPC) 111 % of control | dose: 200.0 mg/kg/injection, schedule: Q04DX002 (ip), vehicle: Klucel (hydroxypropylcellulose) (HPC) 99 % of control | dose: 400.0 mg/kg/injection, schedule: Q04DX002 (ip), vehicle: Klucel (hydroxypropylcellulose) (HPC) 86 % of control

CC(=O)N1CCC(CC(O)Cc2ccnc3ccccc23)CC1 (stereo unspecified)
inactive: dose: 100.0 mg/kg/injection, schedule: Q04DX003 (ip), vehicle: saline 97 % of control | dose: 200.0 mg/kg/injection, schedule: Q04DX003 (ip), vehicle: saline 97 % of control
